The values that follow come from patent US10570121B2, “Substituted dihydroisoquinolinone compounds” (priority 2014, dated 2020).

Molecules are shown by their SMILES. Where two headings read alike, the source gives them in different places.

One experiment deals with EZH2 Mutant Y641N (Homo sapiens (Human), UniProt Q15910, Y641N). Put plainly: EZH2 Mutant Y641N nucleosome assay. The class given is biochemical. The settings on record: PRC2 4-protein complex 6 nM, 1.5 μM SAM, HeLa oligonucleosomes.
A further experiment has as its target WT EZH2 (Homo sapiens (Human), UniProt Q15910). Put plainly: WT EZH2 nucleosome assay (10X SAM, high SAM conditions). The format is biochemical. Conditions: 15 uM SAM, Ki app from competitive inhibition fit.
Where [1] appears, read: read-out: EZH2 Mutant Y641N Nucleosome assay IC50.
Setting [2] is: read-out: WT EZH2 Nucleosome assay (10X SAM) Ki.

EZH2 Mutant Y641N, sequence (Q15910 whole entry Y641N, looked up): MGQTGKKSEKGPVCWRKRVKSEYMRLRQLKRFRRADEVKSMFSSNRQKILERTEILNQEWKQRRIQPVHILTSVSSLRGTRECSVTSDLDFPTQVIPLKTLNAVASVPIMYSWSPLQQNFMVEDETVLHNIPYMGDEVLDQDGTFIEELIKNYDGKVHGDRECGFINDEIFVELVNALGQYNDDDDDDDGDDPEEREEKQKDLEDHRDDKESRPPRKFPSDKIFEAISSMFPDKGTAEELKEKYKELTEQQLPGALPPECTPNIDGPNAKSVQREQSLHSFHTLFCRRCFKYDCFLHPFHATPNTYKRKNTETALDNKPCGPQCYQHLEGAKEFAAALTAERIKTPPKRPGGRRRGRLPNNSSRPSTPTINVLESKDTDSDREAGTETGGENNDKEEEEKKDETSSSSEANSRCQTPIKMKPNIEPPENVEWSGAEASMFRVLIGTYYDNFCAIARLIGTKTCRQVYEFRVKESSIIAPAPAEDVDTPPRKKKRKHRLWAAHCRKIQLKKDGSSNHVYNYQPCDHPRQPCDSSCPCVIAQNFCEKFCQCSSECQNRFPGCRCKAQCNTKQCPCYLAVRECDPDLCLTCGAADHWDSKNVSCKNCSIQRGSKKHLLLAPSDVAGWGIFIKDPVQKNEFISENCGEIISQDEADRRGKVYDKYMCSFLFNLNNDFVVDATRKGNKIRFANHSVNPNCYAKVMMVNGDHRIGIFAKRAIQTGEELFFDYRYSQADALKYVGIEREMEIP
EZH2 Mutant Y641N, sequence (O75530 whole entry partner, looked up): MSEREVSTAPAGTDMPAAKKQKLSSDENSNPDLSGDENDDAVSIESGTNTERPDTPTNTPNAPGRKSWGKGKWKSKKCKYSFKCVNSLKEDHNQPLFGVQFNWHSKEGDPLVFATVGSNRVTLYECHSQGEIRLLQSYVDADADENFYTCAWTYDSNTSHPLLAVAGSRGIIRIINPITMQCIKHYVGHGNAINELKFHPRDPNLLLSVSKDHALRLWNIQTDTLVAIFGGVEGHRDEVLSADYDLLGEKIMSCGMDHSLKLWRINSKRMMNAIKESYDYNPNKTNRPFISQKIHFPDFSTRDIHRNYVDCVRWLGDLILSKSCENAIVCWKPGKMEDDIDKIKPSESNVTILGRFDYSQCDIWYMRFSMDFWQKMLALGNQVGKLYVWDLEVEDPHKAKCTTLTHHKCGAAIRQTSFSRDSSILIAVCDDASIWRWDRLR
EZH2 Mutant Y641N, sequence (Q15022 whole entry partner, looked up): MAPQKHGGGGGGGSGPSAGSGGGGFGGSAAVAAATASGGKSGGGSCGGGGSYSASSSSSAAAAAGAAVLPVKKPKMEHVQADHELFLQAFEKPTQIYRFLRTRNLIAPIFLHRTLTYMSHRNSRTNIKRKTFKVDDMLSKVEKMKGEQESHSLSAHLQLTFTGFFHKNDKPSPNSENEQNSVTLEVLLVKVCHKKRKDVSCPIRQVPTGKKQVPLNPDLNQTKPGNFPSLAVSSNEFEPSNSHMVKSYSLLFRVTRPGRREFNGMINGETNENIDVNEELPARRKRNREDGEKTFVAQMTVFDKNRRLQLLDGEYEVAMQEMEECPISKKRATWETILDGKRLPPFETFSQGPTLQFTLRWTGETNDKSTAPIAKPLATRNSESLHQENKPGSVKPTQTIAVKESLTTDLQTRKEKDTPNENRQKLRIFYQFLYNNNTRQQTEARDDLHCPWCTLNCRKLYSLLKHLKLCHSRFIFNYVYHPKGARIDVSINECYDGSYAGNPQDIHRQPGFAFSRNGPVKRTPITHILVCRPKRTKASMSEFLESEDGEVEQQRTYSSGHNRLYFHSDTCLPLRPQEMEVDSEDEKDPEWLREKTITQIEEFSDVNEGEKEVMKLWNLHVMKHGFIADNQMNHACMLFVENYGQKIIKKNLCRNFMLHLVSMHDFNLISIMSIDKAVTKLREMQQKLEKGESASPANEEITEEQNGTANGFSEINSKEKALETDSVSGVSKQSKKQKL
EZH2 Mutant Y641N, sequence (Q09028 whole entry partner, looked up): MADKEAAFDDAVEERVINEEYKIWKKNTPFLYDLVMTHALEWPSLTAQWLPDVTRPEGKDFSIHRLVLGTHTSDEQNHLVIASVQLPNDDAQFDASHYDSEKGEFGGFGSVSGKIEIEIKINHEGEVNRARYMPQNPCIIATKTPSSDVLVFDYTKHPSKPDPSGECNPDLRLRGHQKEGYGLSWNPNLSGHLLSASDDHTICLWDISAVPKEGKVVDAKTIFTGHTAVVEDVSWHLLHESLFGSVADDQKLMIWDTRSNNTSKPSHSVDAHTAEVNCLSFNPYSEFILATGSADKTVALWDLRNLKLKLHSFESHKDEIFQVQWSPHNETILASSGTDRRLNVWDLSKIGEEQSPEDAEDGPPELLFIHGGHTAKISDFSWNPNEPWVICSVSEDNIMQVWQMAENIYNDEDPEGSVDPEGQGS
WT EZH2, sequence (Q15910 whole entry, looked up): as the sequence (Q15910 whole entry Y641N, looked up) above, with N641Y counted along it
WT EZH2, sequence (O75530 whole entry partner, looked up): as the sequence (O75530 whole entry partner, looked up) above
WT EZH2, sequence (Q15022 whole entry partner, looked up): as the sequence (Q15022 whole entry partner, looked up) above
WT EZH2, sequence (Q09028 whole entry partner, looked up): as the sequence (Q09028 whole entry partner, looked up) above

The term IC50 denotes the concentration needed to halve the response being measured. Consider `Cc1cc(C)c(CN2CCc3ccc(C(CO)C4CCOC4)c(Cl)c3C2=O)c(=O)[nH]1` (single isomer, unassigned) [Example 98], for which the IC50 on EZH2 Mutant Y641N (setting [1]) was 8.72 µM. In addition, at WT EZH2 (setting [2]), the Ki amounted to 1.22 µM.
Take `COc1cc(C)[nH]c(=O)c1CN1CCc2c(Cl)cc(C(C)C3CCN(C(=O)CO)CC3)c(Cl)c2C1=O` (single isomer, unassigned) [Example 201]: the IC50 on EZH2 Mutant Y641N (setting [1]) came to 0.037 µM. In addition, on WT EZH2 (setting [2]), the Ki was 0.007 µM.
On to `COC(c1cc(Br)c2c(c1Cl)C(=O)N(Cc1c(C)cc(C)[nH]c1=O)CC2)C1CN(C(=O)CO)C1` (single isomer, unassigned) [Example 138], for which the IC50 at EZH2 Mutant Y641N (setting [1]) is 0.249 µM. Moreover, the Ki on WT EZH2 (setting [2]) came to 0.046 µM.
On to `COC(c1cc(Cl)c2c(c1Cl)C(=O)N(Cc1c(C)cc(C)[nH]c1=O)CC2)C1CC[S+]([O-])CC1` (single isomer, unassigned) [Example 115], for which the IC50 at EZH2 Mutant Y641N (setting [1]) was 0.005 µM. At WT EZH2 (setting [2]), the Ki was 0.0003 µM.
With `COc1cc(C)[nH]c(=O)c1CN1CCc2c(C)cc(C(C)=C3CN(S(C)(=O)=O)C3)c(Cl)c2C1=O` [Example 78], the IC50 on EZH2 Mutant Y641N (setting [1]) came out at 0.04 µM. Further, the Ki at WT EZH2 (setting [2]) was 0.004 µM.
The corresponding values for `Cc1cc(C)c(CN2CCc3c(Cl)cc(C(F)C4CCN(C(=O)CO)CC4)c(Cl)c3C2=O)c(=O)[nH]1` (single isomer, unassigned; (-)) [Example 9, (−)-5,8-dichloro-2-[(4,6-dimethyl-2-oxo-1,2-dihydropyridin-3-yl)methyl]-7-{fluoro[1-(hydroxyacetyl)piperidin-4-yl]methyl}-3,4-dihydroisoquinolin-1(2H)-one] are 0.035 µM and 0.005 µM.
In the case of `COC(c1ccc2c(c1Cl)C(=O)N(Cc1c(C)cc(C)[nH]c1=O)CC2)C1CCOC1` (single isomer, unassigned) [Example 132], on EZH2 Mutant Y641N (setting [1]), the IC50 turned out to be 0.013 µM. Further, the Ki on WT EZH2 (setting [2]) stood at 0.001 µM.
For `Cc1cc(C)c(CN2CCc3c(Cl)cc(C(CO)N4CC[C@H](F)C4)c(Cl)c3C2=O)c(=O)[nH]1` (stereo partly shown) [Example 58], the IC50 at EZH2 Mutant Y641N (setting [1]) was determined as 0.513 µM. In addition, on WT EZH2 (setting [2]), the Ki came to 0.057 µM.
`COc1cc(C)[nH]c(=O)c1CN1CCc2c(C)cc([C@@H](OC)[C@@H]3CCOC3)c(Cl)c2C1=O` (single isomer, unassigned) [Example 85, 8-chloro-2-[(4-methoxy-6-methyl-2-oxo-1,2-dihydropyridin-3-yl)methyl]-7-{(S*)-methoxy[(3R*)-tetrahydrofuran-3-yl]methyl}-5-methyl-3,4-dihydroisoquinolin-1(2H)-one]: the IC50 on EZH2 Mutant Y641N (setting [1]) is 0.238 µM. Besides, the Ki at WT EZH2 (setting [2]) amounted to 0.052 µM.
On to `Cc1cc(C)c(CN2CCc3c(C)cc(C(C)C4CN(S(C)(=O)=O)C4)c(Cl)c3C2=O)c(=O)[nH]1` (single isomer, unassigned) [Example 193], for which, at EZH2 Mutant Y641N (setting [1]), the IC50 stood at 0.01 µM. Besides, the Ki on WT EZH2 (setting [2]) was 0.001 µM.
Consider `CC(=C1CN(C(=O)CO)C1)c1cc(Cl)c2c(c1Cl)C(=O)N(Cc1c(C)cc(C)[nH]c1=O)CC2` [Example 75, 5,8-dichloro-2-[(4,6-dimethyl-2-oxo-1,2-dihydropyridin-3-yl)methyl]-7-{1-[1-(hydroxyacetyl)azetidin-3-ylidene]ethyl}-3,4-dihydroisoquinolin-1(2H)-one], for which the 50% inhibitory concentration (IC50) at EZH2 Mutant Y641N (setting [1]) turned out to be 0.02 µM. Further, on WT EZH2 (setting [2]), the Ki turned out to be 0.002 µM.
Turning to `COc1cc(C)[nH]c(=O)c1CN1CCc2c(Cl)cc(C(C3COC3)N(C)C)c(Cl)c2C1=O` (single isomer, unassigned) [Example 203], the IC50 on EZH2 Mutant Y641N (setting [1]) came to 0.204 µM. Moreover, the Ki at WT EZH2 (setting [2]) amounted to 0.055 µM.
In the same order, the values of `COC(c1cc(C)c2c(c1Cl)C(=O)N(Cc1c(C)cc(C)[nH]c1=O)CC2)C1CCN(C(=O)CO)CC1` (single isomer, unassigned) [Example 169] are 0.07 µM and 0.0151 µM.
Take `Cc1cc(C)c(CN2CCc3c(Cl)cc(C(C)N4CCN(C)CC4)c(Cl)c3C2=O)c(=O)[nH]1` (racemic) [Example 202]: on EZH2 Mutant Y641N (setting [1]), the IC50 turned out to be 0.207 µM. In addition, at WT EZH2 (setting [2]), the Ki is 0.016 µM.
In the case of `COC(c1cc(Cl)c2c(c1Cl)C(=O)N(Cc1c(C)cc(C)[nH]c1=O)CC2)[C@H](C)CO` (single isomer, unassigned) [Example 140], the IC50 at EZH2 Mutant Y641N (setting [1]) came out at 1.17 µM. In addition, at WT EZH2 (setting [2]), the Ki was 0.103 µM.
Regarding `Cc1cc(C)c(CN2CCc3c(Cl)cc(C(CO)N4CC[C@@H](F)C4)c(Cl)c3C2=O)c(=O)[nH]1` (stereo partly drawn) [Example 5, 5,8-dichloro-2-[(4,6-dimethyl-2-oxo-1,2-dihydropyridin-3-yl)methyl]-7-{1-[(3R)-3-fluoropyrrolidin-1-yl]-2-hydroxyethyl}-3,4-dihydroisoquinolin-1(2H)-one], the IC50 on EZH2 Mutant Y641N (setting [1]) was determined as 0.189 µM. For the same compound, the Ki on WT EZH2 (setting [2]) came out at 0.033 µM.
Regarding `COC(C(C)=O)c1cc(Cl)c2c(c1Cl)C(=O)N(Cc1c(C)cc(C)[nH]c1=O)CC2` (racemic) [Example 49], on EZH2 Mutant Y641N (setting [1]), the IC50 was determined as 0.996 µM. In addition, the Ki at WT EZH2 (setting [2]) was found to be 0.215 µM.
Take `COC(c1cc(Cl)c2c(c1Cl)C(=O)N(Cc1c(C)cc(C)[nH]c1=O)CC2)C1CCS(=O)(=O)C1` (single isomer, unassigned) [Example 149]: the IC50 on EZH2 Mutant Y641N (setting [1]) came to 2.27 µM. The Ki at WT EZH2 (setting [2]) amounted to 0.539 µM.
Turning to `COc1cc(C)[nH]c(=O)c1CN1CCc2c(C)cc([C@@H](OC)[C@H]3CCOC3)c(Cl)c2C1=O` [Example 86, 8-chloro-2-[(4-methoxy-6-methyl-2-oxo-1,2-dihydropyridin-3-yl)methyl]-7-{(S)-methoxy[(3S)-tetrahydrofuran-3-yl]methyl}-5-methyl-3,4-dihydroisoquinolin-1(2H)-one], the IC50 on EZH2 Mutant Y641N (setting [1]) stood at 0.637 µM. Besides, the Ki at WT EZH2 (setting [2]) was 0.061 µM.
Consider `CCC(OC)c1cc(Cl)c2c(c1Cl)C(=O)N(Cc1c(OC)cc(C)[nH]c1=O)CC2` (single isomer, unassigned) [Example 108], for which the IC50 at EZH2 Mutant Y641N (setting [1]) is 0.016 µM. Besides, the Ki on WT EZH2 (setting [2]) was determined as 0.0017 µM.
As for `COC(c1cc(Cl)c2c(c1Cl)C(=O)N(Cc1c(C)cc(C)[nH]c1=O)CC2)C1(O)CCOCC1` (single isomer, unassigned) [Example 52], at EZH2 Mutant Y641N (setting [1]), the IC50 stood at 1.04 µM. The Ki on WT EZH2 (setting [2]) was 0.298 µM.
`Cc1cc(C)c(CN2CCc3c(Cl)cc(C(C)N4CCOCC4)c(Cl)c3C2=O)c(=O)[nH]1` (single isomer, unassigned; (-)) [Example 91, (−)-5,8-dichloro-2-[(4,6-dimethyl-2-oxo-1,2-dihydropyridin-3-yl)methyl]-7-[1-(morpholin-4-yl)ethyl]-3,4-dihydroisoquinolin-1(2H)-one]: the IC50 on EZH2 Mutant Y641N (setting [1]) was found to be 0.023 µM. The Ki on WT EZH2 (setting [2]) was 0.001 µM.
As to `COc1cc(C)[nH]c(=O)c1CN1CCc2c(C)cc(C(C)C3COC3)c(Cl)c2C1=O` (single isomer, unassigned) [Example 197], the IC50 at EZH2 Mutant Y641N (setting [1]) amounted to 0.062 µM. The Ki on WT EZH2 (setting [2]) was found to be 0.033 µM.
As for `COC(c1cc(C)c2c(c1Cl)C(=O)N(Cc1c(C)cc(C)[nH]c1=O)CC2)C1CCN(C2COC2)CC1` (single isomer, unassigned) [Example 155], at EZH2 Mutant Y641N (setting [1]), the IC50 is 0.027 µM. Also, on WT EZH2 (setting [2]), the Ki came to 0.0013 µM.
As for `COc1cc(C)[nH]c(=O)c1CN1CCc2c(Cl)cc([C@@H](OC)C3COC3)c(Cl)c2C1=O` [Example 82, 5,8-dichloro-2-[(4-methoxy-6-methyl-2-oxo-1,2-dihydropyridin-3-yl)methyl]-7-[(S)-methoxy(oxetan-3-yl)methyl]-3,4-dihydroisoquinolin-1(2H)-one], at EZH2 Mutant Y641N (setting [1]), the IC50 came out at 0.131 µM. The Ki at WT EZH2 (setting [2]) was 0.006 µM.
In the case of `COc1cc(C)[nH]c(=O)c1CN1CCc2c(C)cc(C(C)C3CN(S(C)(=O)=O)C3)c(Cl)c2C1=O` (single isomer, unassigned) [Example 191], at EZH2 Mutant Y641N (setting [1]), the IC50 came out at 0.005 µM. In addition, the Ki on WT EZH2 (setting [2]) is 0.0003 µM.
Consider `Cc1cc(OC(F)F)c(CN2CCc3c(Cl)cc(C(CO)C4CCOC4)c(Cl)c3C2=O)c(=O)[nH]1` (single isomer, unassigned) [Example 92], for which the IC50 on EZH2 Mutant Y641N (setting [1]) was 0.009 µM. Also, the Ki on WT EZH2 (setting [2]) stood at 0.001 µM.
Turning to `COC(c1cc(Cl)c2c(c1Cl)C(=O)N(Cc1c(C)cc(C)[nH]c1=O)CC2)C1CN(C(=O)[C@@H](C)O)C1` (single isomer, unassigned) [Example 170], the IC50 at EZH2 Mutant Y641N (setting [1]) came to 0.014 µM. Besides, the Ki on WT EZH2 (setting [2]) is 0.0008 µM.
For the compound `COc1cc(C)[nH]c(=O)c1CN1CCc2c(C)cc(C(C)C3CN(S(C)(=O)=O)C3)c(Cl)c2C1=O` (single isomer, unassigned) [Example 192], the IC50 at EZH2 Mutant Y641N (setting [1]) is 0.605 µM. For the same compound, the Ki at WT EZH2 (setting [2]) stood at 0.117 µM.
Regarding `Cc1cc(OC(F)F)c(CN2CCc3c(Cl)cc(C(CO)C4CCOC4)c(Cl)c3C2=O)c(=O)[nH]1` (single isomer, unassigned) [Example 94], the IC50 at EZH2 Mutant Y641N (setting [1]) turned out to be 4.87 µM. Besides, the Ki on WT EZH2 (setting [2]) was determined as 0.323 µM.
Consider `COC(c1cc(Cl)c2c(c1Cl)C(=O)N(Cc1c(C)cc(C)[nH]c1=O)CC2)C1CN(C(=O)[C@H](C)O)C1` (single isomer, unassigned) [Example 172], for which, on EZH2 Mutant Y641N (setting [1]), the IC50 was found to be 0.012 µM. For the same compound, the Ki at WT EZH2 (setting [2]) was determined as 0.0008 µM.
For the compound `COc1cc(C)[nH]c(=O)c1CN1CCc2c(Cl)cc(C(OC)C3CCOC3)c(Cl)c2C1=O` (single isomer, unassigned) [Example 124], half-maximal inhibition against EZH2 Mutant Y641N (EZH2 Mutant Y641N Nucleosome assay IC50 (μM)) (IC50) was put at 0.892 µM. On WT EZH2 (WT EZH2 Nucleosome assay (10X SAM) Ki (μM)), this compound came in with a Ki of 0.058 µM.
Take `Cc1cc(C)c(CN2CCc3ccc([C@H](CO)[C@@H]4CCOC4)c(Cl)c3C2=O)c(=O)[nH]1` (racemic) [Example 65]: the IC50 on EZH2 Mutant Y641N (setting [1]) is 0.047 µM. The Ki at WT EZH2 (setting [2]) turned out to be 0.006 µM.
Consider `Cc1cc(C)c(CN2CCc3c(Cl)cc(C(C)N4CCNCC4)c(Cl)c3C2=O)c(=O)[nH]1` (racemic) [Example 205], for which, on EZH2 Mutant Y641N (setting [1]), the IC50 was 0.008 µM. Also, the Ki on WT EZH2 (setting [2]) is 0.0007 µM.
For `Cc1cc(C)c(CN2CCc3ccc(C(CO)C4CCOC4)c(Cl)c3C2=O)c(=O)[nH]1` (single isomer, unassigned) [Example 96], the IC50 on EZH2 Mutant Y641N (setting [1]) turned out to be 2.99 µM. Moreover, the Ki at WT EZH2 (setting [2]) amounted to 0.204 µM.
